In the supplement of paper PMC10307832:

Compound: COC1=CC=C(C=C1)CN2C=CC3=C2C=C(C=C3)C(=O)NO + Cc1nc(Nc2ncc(C(=O)Nc3c(C)cccc3Cl)s2)cc(N2CCN(CCO)CC2)n1 [Dasatinib] (partner 0.075 µM)
Experiment: relative viability (nuclei count vs DMSO), 5 days (fraction); higher = more cells survive
Settings: first compound 0.08 µM
How it was run: (§1)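 One day after seeding in 1536-well plates, lung cancer cell lines were dosed by pin tool. Dosing was either single-drug or a fixed anchor-drug dose plus five library-drug doses (not always all listed) in √10 steps. After 5 days, nuclei were stained in one fix-and-stain step and counted on 4× images, and relative viability is the nuclei count of treated wells over that of vehicle wells, given as the median of duplicate plates.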

Point of comparison: NCI-H1651, relative viability 0.311. Against it:
- SW 900 — higher, 0.541
- COR-L23 — higher, 0.388
- HCC-827 — higher, 0.429
- LCLC-103H — higher, 0.553
- RERF-LC-KJ — higher, 0.839
- NCI-H3122 — higher, 0.864
- BEN — lower, 0.305
- LCLC-97TM1 — lower, 0.294
- NCI-H2085 — lower, 0.235
- NCI-H727 — higher, 0.349
- 201T — higher, 0.625
- LOU-NH91 — higher, 0.516
- NCI-H1666 — higher, 0.831
- NCI-H650 — higher, 0.492
- NCI-H1993 — higher, 0.569
- NCI-H647 — lower, 0.126
- NCI-H2126 — higher, 0.591
- NCI-H1755 — higher, 0.37
- PC-3 [JPC-3] — higher, 0.986
- NCI-H2087 — higher, 0.93
- NCI-H441 — higher, 0.613
- HOP-62 — higher, 0.601
- NCI-H2170 — higher, 0.456

Same assay, conditions: first compound 0.253 µM

Point of comparison: PC-3 [JPC-3], relative viability 0.974. Against it:
- PC-14 — lower, 0.248
- LXF-289 — lower, 0.202
- LC-2-ad — lower, 0.633
- SW 900 — lower, 0.556
- NCI-H1651 — lower, 0.452
- COR-L23 — lower, 0.463
- HCC-827 — lower, 0.395
- NCI-H522 — lower, 0.904
- LCLC-103H — lower, 0.506
- RERF-LC-KJ — lower, 0.867
- NCI-H3122 — lower, 0.869
- BEN — lower, 0.264
- UMC-11 — lower, 0.454
- LCLC-97TM1 — lower, 0.667
- NCI-H2085 — lower, 0.293
- A-427 — lower, 0.75
- NCI-H727 — lower, 0.315
- NCI-H838 — lower, 0.265
- NCI-H1793 — lower, 0.354
- 201T — lower, 0.662
- NCI-H2228 — lower, 0.458
- LOU-NH91 — lower, 0.532
- NCI-H1666 — lower, 0.783
- NCI-H650 — lower, 0.432
- ChaGo-K-1 — lower, 0.589
- NCI-H1993 — lower, 0.633
- NCI-H647 — lower, 0.198
- NCI-H2126 — lower, 0.673
- NCI-H1755 — lower, 0.466
- NCI-H2087 — lower, 0.941
- NCI-H441 — lower, 0.621
- HOP-62 — lower, 0.72
- NCI-H2170 — lower, 0.687

Same assay, conditions: first compound 0.8 µM

Point of comparison: NCI-H2126, relative viability 0.655. Against it:
- PC-14 — lower, 0.292
- LXF-289 — lower, 0.237
- LC-2-ad — lower, 0.582
- SW 900 — lower, 0.628
- NCI-H1651 — lower, 0.43
- COR-L23 — lower, 0.556
- HCC-827 — lower, 0.277
- NCI-H522 — higher, 1.12
- LCLC-103H — lower, 0.62
- RERF-LC-KJ — higher, 0.761
- NCI-H3122 — higher, 0.86
- BEN — lower, 0.297
- UMC-11 — lower, 0.422
- LCLC-97TM1 — higher, 0.938
- NCI-H2085 — lower, 0.221
- A-427 — higher, 0.769
- NCI-H727 — lower, 0.437
- NCI-H838 — lower, 0.31
- NCI-H1793 — lower, 0.382
- 201T — lower, 0.607
- NCI-H2228 — higher, 0.662
- LOU-NH91 — lower, 0.54
- NCI-H1666 — higher, 0.887
- NCI-H650 — lower, 0.473
- ChaGo-K-1 — lower, 0.631
- NCI-H1993 — lower, 0.647
- NCI-H647 — lower, 0.179
- NCI-H1755 — lower, 0.414
- PC-3 [JPC-3] — higher, 1.06
- NCI-H2087 — higher, 0.989
- NCI-H441 — lower, 0.623
- HOP-62 — higher, 0.658
- NCI-H2170 — higher, 0.711

Same assay, conditions: first compound 2.53 µM

Point of comparison: A-427, relative viability 0.669. Against it:
- PC-14 — lower, 0.26
- LXF-289 — lower, 0.246
- LC-2-ad — higher, 0.677
- SW 900 — lower, 0.629
- NCI-H1651 — lower, 0.358
- COR-L23 — lower, 0.524
- HCC-827 — lower, 0.297
- NCI-H522 — higher, 0.781
- LCLC-103H — lower, 0.539
- RERF-LC-KJ — higher, 0.829
- NCI-H3122 — higher, 0.741
- BEN — lower, 0.347
- UMC-11 — lower, 0.471
- LCLC-97TM1 — higher, 0.801
- NCI-H2085 — lower, 0.225
- NCI-H727 — lower, 0.417
- NCI-H838 — lower, 0.297
- NCI-H1793 — lower, 0.4
- 201T — lower, 0.573
- NCI-H2228 — lower, 0.497
- LOU-NH91 — lower, 0.593
- NCI-H1666 — higher, 0.873
- NCI-H650 — lower, 0.474
- ChaGo-K-1 — lower, 0.584
- NCI-H1993 — lower, 0.665
- NCI-H647 — lower, 0.186
- NCI-H2126 — lower, 0.61
- NCI-H1755 — lower, 0.444
- PC-3 [JPC-3] — higher, 1.13
- NCI-H2087 — higher, 0.983
- NCI-H441 — lower, 0.567
- HOP-62 — lower, 0.66
- NCI-H2170 — higher, 0.69

Same assay, conditions: first compound 8 µM

Point of comparison: NCI-H2126, relative viability 0.547. Against it:
- PC-14 — lower, 0.178
- LXF-289 — lower, 0.181
- LC-2-ad — lower, 0.349
- SW 900 — lower, 0.334
- NCI-H1651 — lower, 0.331
- COR-L23 — lower, 0.427
- HCC-827 — lower, 0.275
- NCI-H522 — higher, 0.765
- LCLC-103H — lower, 0.392
- RERF-LC-KJ — higher, 0.751
- NCI-H3122 — lower, 0.527
- BEN — lower, 0.317
- UMC-11 — lower, 0.44
- LCLC-97TM1 — higher, 0.721
- NCI-H2085 — lower, 0.214
- A-427 — lower, 0.503
- NCI-H727 — lower, 0.303
- NCI-H838 — lower, 0.258
- NCI-H1793 — lower, 0.412
- 201T — lower, 0.545
- NCI-H2228 — lower, 0.413
- LOU-NH91 — lower, 0.523
- NCI-H1666 — higher, 0.822
- NCI-H650 — lower, 0.408
- ChaGo-K-1 — lower, 0.486
- NCI-H1993 — higher, 0.572
- NCI-H647 — lower, 0.186
- NCI-H1755 — lower, 0.397
- PC-3 [JPC-3] — higher, 1.03
- NCI-H2087 — higher, 0.653
- NCI-H441 — lower, 0.485
- HOP-62 — lower, 0.529
- NCI-H2170 — lower, 0.541

Compound: C[C@]1(c2nc3c(C(N)=O)cccc3[nH]2)CCCN1 [Veliparib] + Cc1cc(Nc2cc(N3CCN(C)CC3)nc(Sc3ccc(NC(=O)C4CC4)cc3)n2)n[nH]1 [Tozasertib] (partner 0.1 µM)
Experiment: as above
Settings: first compound 0.02 µM
How it was run: as §1

Point of comparison: LXF-289, relative viability 0.194. Against it:
- PC-14 — higher, 0.638
- NCI-H1651 — higher, 0.864
